# Laboratory results: patent publication US8097605B2, “Combination of anticholinergics and inhibitors of phosphodiesterase type 4 for the treatment of respiratory disease” (Meda Pharma GmbH & Co. KG, priority 2004, dated 2012)
# Assays:
# [1] = test system: M1-M3 receptors; settings: cited from earlier work
# [2] = molecular target: M3 muscarinic receptors (Homo sapiens, UniProt P20309); settings: kinetics studies; cited from earlier work
# [3] = test system: human peripheral blood mononuclear cells (PBMCs); assay: LPS-induced TNFα release from human PBMCs/monocytes (sandwich ELISA); type: cell-based; settings: LPS 1 μg/ml
# Experimental: The influence of R,R-glycopyrrolate in combination with PDE4 inhibitors on TNF secretion was investigated by using human peripheral blood mononuclear cells (PBMCs). The study was approved by our institutional Ethics Committee according to the International Declarations of Helsinki and Tokyo.
# PBMCs were isolated from heparinized blood samples of healthy donors by density gradient centrifugation. An equal volume of Hanks buffer (Life Technologies, Heidelberg, Germany) is added to heparinized whole blood samples. 15 ml Histopaque-1077 (Sigma, Deisenhofen, Germany) are overlayed with a maximum of 40 ml of blood/Hanks mixture were centrifuged for 30 min at room temperature (2000 rpm). A visible band containing PBMCs is transferred to a fresh tube and washed twice with Hanks-buffer. Finally cells are seeded in RPMI 1640 Medium (Life Technologies, Heidelberg, Germany) with Glutamax I (Gibco BRL, Eggenstein) and 10% fetal calf serum (Boehringer Mannheim, Penzberg, Germany). After isolated, PBMCs were cultured in RPMI 1640 medium supplemented with 10% fetal calf serum (FCS) at 37° C. 5% CO2 overnight. […] by adherence method, non-adherent cells were removed by changing the medium.
# Cells are re-suspended at 10^6 cells/ml and incubated in 500 μl volumes in 24-well tissue culture plates (Falcon Becton Dickinson Labware) at 37° C., 5% CO2. After pre-incubation with test substances (0.5 μl/500 μl medium) for 30 min, cells were stimulated with lipopolysaccharide (LPS) (1 μg/ml). […]
# Cytokine measurements in culture supernatants are done by sandwich ELISA using matched antibody pairs (Pharmingen, Heidelberg, Germany). […] Plates are read at 450 nm (reference 570 nm) in a microplate reader (Dynatech). The results are expressed as a percentage of the control level of cytokines production by cells stimulated in the absence of the compound.
# [4] = dog, in vivo, 15 mg/kg; cited from earlier work
# [5] = test system: allergen-induced airway eosinophilia; settings: Brown Norway rats, administered intrapulmonary; cited from earlier work
# Sequence of M3 muscarinic receptors (P20309 whole entry): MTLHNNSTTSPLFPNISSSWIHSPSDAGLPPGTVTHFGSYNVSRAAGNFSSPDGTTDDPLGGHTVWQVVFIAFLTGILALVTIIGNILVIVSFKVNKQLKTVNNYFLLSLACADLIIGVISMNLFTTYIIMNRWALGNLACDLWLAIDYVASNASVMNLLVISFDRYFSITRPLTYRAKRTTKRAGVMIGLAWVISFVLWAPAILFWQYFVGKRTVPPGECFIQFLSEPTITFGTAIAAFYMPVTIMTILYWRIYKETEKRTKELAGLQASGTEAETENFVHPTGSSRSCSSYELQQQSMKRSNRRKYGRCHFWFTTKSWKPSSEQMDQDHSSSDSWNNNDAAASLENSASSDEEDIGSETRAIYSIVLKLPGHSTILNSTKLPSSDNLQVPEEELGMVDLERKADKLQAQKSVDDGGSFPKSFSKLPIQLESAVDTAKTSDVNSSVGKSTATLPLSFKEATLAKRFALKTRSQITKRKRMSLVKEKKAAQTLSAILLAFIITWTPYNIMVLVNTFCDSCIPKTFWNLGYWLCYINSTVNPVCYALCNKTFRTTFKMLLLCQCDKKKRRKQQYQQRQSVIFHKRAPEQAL
structure (smiles),measurement,setting,value
C[N+]1(C)CCC(OC(=O)C(O)(c2ccccc2)C2CCCC2)C1 (racemic) [Glycopyrrolate],selectivity in binding to the M1-M3 receptors,[1],no selectivity
same,dissociation from M3 muscarinic receptors,[2],dissociates slowly
COc1ccc(C2CNC(=O)C2)cc1OC1CCCC1 (centres unmarked) [rolipram],IC35 of TNFα release inhibition,[3]; rolipram alone,68.9 ± 15.2 nM
same,"IC35 of TNFα release inhibition with simultaneous addition of R,R-glycopyrrolate","[3]; rolipram plus 10 μmol/l R,R-glycopyrrolate, p=0.0151",1.70 ± 1.18 nM
O=C(Nc1c(Cl)cncc1Cl)C(=O)c1cn(Cc2ccc(F)cc2)c2ccc(O)cc12 [AWD 12-281],emesis,[4],no emesis was induced
same,ID50 suppression of allergen-induced airway eosinophilia,[5],7 µg/kg
"C[N+]1(C)CC[C@@H](OC(=O)[C@](O)(c2ccccc2)C2CCCC2)C1.[Br-] [R,R-glycopyrrolate]",influence on LPS-induced TNFα release,"[3]; compound alone, up to 10 μmol/l",did not influence
C[C@H]1C[C@H]2[C@@H]3CCC4=CC(=O)C=C[C@]4(C)[C@@]3(Cl)[C@@H](O)C[C@]2(C)[C@@]1(O)C(=O)CO [beclomethasone],ID50 suppression of allergen-induced airway eosinophilia,[5],0.1 µg/kg
